Assay results from PubChem BioAssay AID260 (DTP/NCI, 2004).
“And” between values parts separate entries of the source, which are not always exact repeats. Identical values can stand only once. Toxic doses and inconclusive results are not listed.

Tested on: CD2F1 mice, intracerebral L1210 leukemia, survival T/C
Assay: NCI In Vivo Anticancer Drug Screen. Data for tumor model L1210 Leukemia (intracerebral) in CD2F1 (CDF1) mice
Settings: higher = longer survival
Method: The antitumor activity of compounds was measured in mice bearing transplantable tumors. Survival or tumor size were measured and the results are expressed as the measurement made in the treated group (T) divided by the measurement made in the vehicle treated control group (C). The tumor model used in this assay is L1210 Leukemia (intracerebral) in CD2F1 (CDF1) mice

[1] = endpoint: median survival time, dose: 4.0 mg/kg/injection, schedule: Q01DX001 (ip), vehicle: other
[2] = endpoint: median survival time, dose: 16.0 mg/kg/injection, schedule: Q01DX001 (ip), vehicle: other
[3] = endpoint: median survival time, dose: 32.0 mg/kg/injection, schedule: Q01DX001 (ip), vehicle: other
[4] = endpoint: mean survival time, dose: 50.0 mg/kg/injection, schedule: Q01DX009 (ip), vehicle: saline
[5] = endpoint: mean survival time, dose: 100.0 mg/kg/injection, schedule: Q01DX009 (ip), vehicle: saline
[6] = endpoint: mean survival time, dose: 200.0 mg/kg/injection, schedule: Q01DX009 (ip), vehicle: saline
[7] = endpoint: median survival time, dose: 64.0 mg/kg/injection, schedule: Q01DX005 (ip), vehicle: saline with Tween-80

## O=NN(CCCl)C(=O)NC1CCCCC1
[1]
  T/C: 112 % of control
endpoint: median survival time, dose: 8.0 mg/kg/injection, schedule: Q01DX001 (ip), vehicle: saline + alcohol
  T/C: 106 % of control
[2]
  T/C: 177 % of control
endpoint: median survival time, dose: 16.0 mg/kg/injection, schedule: Q01DX001 (ip), vehicle: saline + alcohol
  T/C: 118 % of control
[3]
  T/C: 415 % of control
endpoint: median survival time, dose: 64.0 mg/kg/injection, schedule: Q01DX001 (ip), vehicle: saline + alcohol
  T/C: 389 % of control
endpoint: median survival time, dose: 128.0 mg/kg/injection, schedule: Q01DX001 (ip), vehicle: saline + alcohol
  T/C: 168 % of control
endpoint: median survival time, dose: 256.0 mg/kg/injection, schedule: Q01DX001 (ip), vehicle: saline + alcohol
  T/C: 90 % of control

## CC1CCC(NC(=O)N(CCCl)N=O)CC1 (configuration not stated)
[1]
  T/C: 123 % of control
endpoint: median survival time, dose: 6.25 mg/kg/injection, schedule: Q01DX001 (ip), vehicle: DMSO
  T/C: 116 % of control
endpoint: median survival time, dose: 6.25 mg/kg/injection, schedule: Q01DX001 (ip), vehicle: saline + alcohol
  T/C: 116 % of control
endpoint: median survival time, dose: 6.25 mg/kg/injection, schedule: Q01DX001 (oral), vehicle: saline + alcohol
  T/C: 109 % of control
endpoint: median survival time, dose: 12.5 mg/kg/injection, schedule: Q01DX001 (ip), vehicle: DMSO
  T/C: 116 % of control
endpoint: median survival time, dose: 12.5 mg/kg/injection, schedule: Q01DX001 (ip), vehicle: saline + alcohol
  T/C: 119 % of control
endpoint: median survival time, dose: 12.5 mg/kg/injection, schedule: Q01DX001 (oral), vehicle: saline + alcohol
  T/C: 109 % of control
[2]
  T/C: 166 % of control
endpoint: median survival time, dose: 25.0 mg/kg/injection, schedule: Q01DX001 (ip), vehicle: saline + alcohol
  T/C: 166 % of control
endpoint: median survival time, dose: 25.0 mg/kg/injection, schedule: Q01DX001 (oral), vehicle: saline + alcohol
  T/C: 120 % of control
[3]
  T/C: 333 % of control
endpoint: median survival time, dose: 50.0 mg/kg/injection, schedule: Q01DX001 (ip), vehicle: DMSO
  T/C: 123 % of control
endpoint: median survival time, dose: 50.0 mg/kg/injection, schedule: Q01DX001 (ip), vehicle: saline + alcohol
  T/C: 155 % of control
endpoint: median survival time, dose: 64.0 mg/kg/injection, schedule: Q01DX001 (ip), vehicle: other
  T/C: 88 % of control
endpoint: median survival time, dose: 100.0 mg/kg/injection, schedule: Q01DX001 (ip), vehicle: DMSO
  T/C: 169 % of control
endpoint: median survival time, dose: 100.0 mg/kg/injection, schedule: Q01DX001 (ip), vehicle: saline + alcohol
  T/C: 92 % of control
endpoint: median survival time, dose: 100.0 mg/kg/injection, schedule: Q01DX001 (oral), vehicle: saline + alcohol
  T/C: 246 % of control

## CNc1nc(N(C)C)nc(N(C)C)n1
endpoint: median survival time, dose: 12.5 mg/kg/injection, schedule: Q01DX009 (ip), vehicle: saline
  T/C: 98 % of control and 114 % of control

## COc1ccc(CC2C(=O)NC(C)C(=O)N(C)C3C(=O)N(C)C(Cc4ccc(O)c(c4)Oc4ccc(cc4)C3O)C(=O)NC(C)C(=O)NC(C)C(=O)N2C)cc1 (configuration not stated)
endpoint: median survival time, dose: 0.12 mg/kg/injection, schedule: Q01DX009 (ip), vehicle: Klucel (hydroxypropylcellulose) (HPC)
  T/C: 101 % of control
endpoint: median survival time, dose: 0.13 mg/kg/injection, schedule: Q01DX009 (ip), vehicle: saline
  T/C: 93 % of control and 117 % of control
endpoint: median survival time, dose: 0.25 mg/kg/injection, schedule: Q01DX009 (ip), vehicle: Klucel (hydroxypropylcellulose) (HPC)
  T/C: 93 % of control and 101 % of control
endpoint: median survival time, dose: 0.25 mg/kg/injection, schedule: Q01DX009 (ip), vehicle: saline
  T/C: 124 % of control and 91 % of control
endpoint: median survival time, dose: 0.5 mg/kg/injection, schedule: Q01DX009 (ip), vehicle: Klucel (hydroxypropylcellulose) (HPC)
  T/C: 98 % of control and 100 % of control
endpoint: median survival time, dose: 0.5 mg/kg/injection, schedule: Q01DX009 (ip), vehicle: saline
  T/C: 124 % of control and 111 % of control
endpoint: median survival time, dose: 1.0 mg/kg/injection, schedule: Q01DX009 (ip), vehicle: Klucel (hydroxypropylcellulose) (HPC)
  T/C: 97 % of control and 100 % of control
endpoint: median survival time, dose: 1.0 mg/kg/injection, schedule: Q01DX009 (ip), vehicle: saline
  T/C: 104 % of control and 107 % of control
endpoint: median survival time, dose: 2.0 mg/kg/injection, schedule: Q01DX009 (ip), vehicle: saline
  T/C: 109 % of control and 111 % of control

## CN(C)CC(=O)c1ccc(O)c(O)c1
endpoint: median survival time, dose: 100.0 mg/kg/injection, schedule: Q01DX005 (ip), vehicle: saline
  T/C: 95 % of control and 107 % of control
endpoint: median survival time, dose: 200.0 mg/kg/injection, schedule: Q01DX005 (ip), vehicle: saline
  T/C: 109 % of control
endpoint: median survival time, dose: 400.0 mg/kg/injection, schedule: Q01DX005 (ip), vehicle: saline
  T/C: 290 % of control and 103 % of control
endpoint: median survival time, dose: 800.0 mg/kg/injection, schedule: Q01DX005 (ip), vehicle: saline
  T/C: 88 % of control and 110 % of control

## CC(=O)c1ccc(N=NN(C)C)cc1
endpoint: mean survival time, dose: 5.0 mg/kg/injection, schedule: Q01DX007 (ip), vehicle: other
  T/C: 107 % of control
endpoint: mean survival time, dose: 10.0 mg/kg/injection, schedule: Q01DX007 (ip), vehicle: other
  T/C: 89 % of control
endpoint: mean survival time, dose: 20.0 mg/kg/injection, schedule: Q01DX007 (ip), vehicle: other
  T/C: 97 % of control
endpoint: mean survival time, dose: 40.0 mg/kg/injection, schedule: Q01DX007 (ip), vehicle: other
  T/C: 103 % of control
endpoint: mean survival time, dose: 60.0 mg/kg/injection, schedule: Q01DX007 (ip), vehicle: other
  T/C: 93 % of control

## N=[N+]=CC(=O)CCC(NC(=O)C(CCC(=O)C=[N+]=N)NC(=O)CCC(N)C(=O)O)C(=O)O (configuration not stated)
endpoint: median survival time, dose: 0.05 mg/kg/injection, schedule: Q01DX005 (ip), vehicle: Klucel (hydroxypropylcellulose) (HPC)
  T/C: 95 % of control and 100 % of control
endpoint: median survival time, dose: 0.1 mg/kg/injection, schedule: Q01DX005 (ip), vehicle: Klucel (hydroxypropylcellulose) (HPC)
  T/C: 93 % of control and 100 % of control
endpoint: median survival time, dose: 0.2 mg/kg/injection, schedule: Q01DX005 (ip), vehicle: Klucel (hydroxypropylcellulose) (HPC)
  T/C: 96 % of control and 102 % of control
endpoint: median survival time, dose: 0.4 mg/kg/injection, schedule: Q01DX005 (ip), vehicle: Klucel (hydroxypropylcellulose) (HPC)
  T/C: 94 % of control and 100 % of control

## CC1CC(C)/C(=N/NC(N)=S)C(C(O)CC2CC(=O)NC(=O)C2)C1 (configuration not stated)
endpoint: mean survival time, dose: 25.0 mg/kg/injection, schedule: Q01DX009 (ip), vehicle: saline
  T/C: 101 % of control
[4]
  T/C: 100 % of control
[5]
  T/C: 105 % of control
[6]
  T/C: 106 % of control
endpoint: mean survival time, dose: 400.0 mg/kg/injection, schedule: Q01DX009 (ip), vehicle: saline
  T/C: 101 % of control

## N=C(N)SCc1c2ccccc2c(CSC(=N)N)c2ccccc12
[4]
  T/C: 103 % of control
[5]
  T/C: 124 % of control
[6]
  T/C: 88 % of control
endpoint: median survival time, dose: 2.5 mg/kg/injection, schedule: Q01DX005 (ip), vehicle: Klucel (hydroxypropylcellulose) (HPC)
  T/C: 93 % of control and 98 % of control
endpoint: median survival time, dose: 5.0 mg/kg/injection, schedule: Q01DX005 (ip), vehicle: Klucel (hydroxypropylcellulose) (HPC)
  T/C: 97 % of control and 112 % of control
endpoint: median survival time, dose: 10.0 mg/kg/injection, schedule: Q01DX005 (ip), vehicle: Klucel (hydroxypropylcellulose) (HPC)
  T/C: 103 % of control and 115 % of control
endpoint: median survival time, dose: 20.0 mg/kg/injection, schedule: Q01DX005 (ip), vehicle: Klucel (hydroxypropylcellulose) (HPC)
  T/C: 103 % of control and 112 % of control

## Nc1nncs1
endpoint: median survival time, dose: 7.5 mg/kg/injection, schedule: Q01DX009 (ip), vehicle: Klucel (hydroxypropylcellulose) (HPC)
  T/C: 113 % of control
endpoint: median survival time, dose: 60.0 mg/kg/injection, schedule: Q01DX009 (ip), vehicle: Klucel (hydroxypropylcellulose) (HPC)
  T/C: 112 % of control
[7]
  T/C: 118 % of control and 121 % of control and 116 % of control

## CN(N=O)C(=O)Nc1c[nH]c(=O)[nH]c1=O
endpoint: median survival time, dose: 8.0 mg/kg/injection, schedule: Q01DX005 (ip), vehicle: saline with Tween-80
  T/C: 100 % of control
endpoint: median survival time, dose: 16.0 mg/kg/injection, schedule: Q01DX005 (ip), vehicle: saline with Tween-80
  T/C: 103 % of control
endpoint: median survival time, dose: 32.0 mg/kg/injection, schedule: Q01DX005 (ip), vehicle: saline with Tween-80
  T/C: 100 % of control
[7]
  T/C: 110 % of control
endpoint: median survival time, dose: 128.0 mg/kg/injection, schedule: Q01DX005 (ip), vehicle: saline with Tween-80
  T/C: 119 % of control

## COc1ccc2c(c1)CCC(c1ccccc1)=C2c1ccc(OCCN2CCCC2)cc1
endpoint: median survival time, dose: 12.0 mg/kg/injection, schedule: Q01DX005 (ip), vehicle: Klucel (hydroxypropylcellulose) (HPC)
  T/C: 98 % of control and 101 % of control
endpoint: median survival time, dose: 24.0 mg/kg/injection, schedule: Q01DX005 (ip), vehicle: Klucel (hydroxypropylcellulose) (HPC)
  T/C: 106 % of control
endpoint: median survival time, dose: 48.0 mg/kg/injection, schedule: Q01DX005 (ip), vehicle: Klucel (hydroxypropylcellulose) (HPC)
  T/C: 108 % of control
endpoint: median survival time, dose: 96.0 mg/kg/injection, schedule: Q01DX005 (ip), vehicle: Klucel (hydroxypropylcellulose) (HPC)
  T/C: 106 % of control

## CN(C)P1(=O)NCCCO1 (configuration not stated)
endpoint: median survival time, dose: 80.0 mg/kg/injection, schedule: Q01DX001 (ip), vehicle: saline
  T/C: 91 % of control
endpoint: median survival time, dose: 160.0 mg/kg/injection, schedule: Q01DX001 (ip), vehicle: saline
  T/C: 90 % of control
endpoint: median survival time, dose: 320.0 mg/kg/injection, schedule: Q01DX001 (ip), vehicle: saline
  T/C: 92 % of control
endpoint: median survival time, dose: 640.0 mg/kg/injection, schedule: Q01DX001 (ip), vehicle: saline
  T/C: 95 % of control
endpoint: median survival time, dose: 1280.0 mg/kg/injection, schedule: Q01DX001 (ip), vehicle: saline
  T/C: 91 % of control
